Experimental findings from US20210106703A1, “RADIOIMMUNOCONJUGATES IN COMBINATION WITH OTHER DRUGS AS TREATMENT AGAINST NHL” (Nordic Nanovector ASA, priority 2017, published 2021) are described below.

Entries after “also recorded” stand apart in the source; their conditions may differ.

Common to all, as to type: cell-based, human
Test [1] deals with U-2932 cells. In words: Real Time Glo viability screen and validation, Betalutin with PARP or cell cycle kinase inhibitors (Examples 4, 7). The following applies: for BLISS analysis, combination with Betalutin versus expected additive effect: U-2932, significant = more than twice the SD of Betalutin alone. Here is the method:
(§1) DLBCL cell lines U2932 and RIVA were maintained in RPMI 1640-GlutaMAX medium (Gibco) supplemented with 15% fetal bovine serum (Biowest) and 1% penicillin-streptomycin (Gibco) at 37° C. in a humidified atmosphere containing 5% CO2. Cells were split twice a week 1:7 and diluted 2-4 days before start of the experiment, to ensure they are in exponential growth at the beginning of the experiment.
(§2) Cells were treated in 6-well plates without shaking for 18 h with Betalutin at a final concentration of 1 μg/ml for U2932 and 0.5 μg/ml for RIVA. After treatment, PBS was added to the cells, and the cells pelleted. Cells were first resuspended in 1 ml PBS, then washed twice in PBS and finally diluted in growth medium to a final concentration of 2.5*10^6 cells/ml.
(§3) Cells density measurements were performed the day before seeding. Based on these measurements cells were seeded in 384-well plates at a density of 3000 cells per well in a culturing volume of 25 μl (resulting in start titers: 120 000 cells/ml) using a robot. For measuring viability using Real Time Glo (Promega, WI, USA), the Cell Viability Substrate and NanoLuc® Enzyme were diluted 1:500 in growth medium, and 25 μL of diluted reagents dispensed in each well by a robot. All reagents were equilibrated to 37° C. Cells were incubated with the reaction mix for 1 h at 37° C. before the first measurement of luminescence. Measurements were repeated as often as required within 72 h after adding the reagents. A Tecan SPARK 10M plate reader (Tecan, SUI) was used to measure luminescence, with the integration time set to 1 sec.
(§4) The screen was performed in 384-well plate with selected PARP inhibitors (stock solutions 10 mM in DMSO) acquired from SelleckChem (Selleckchem, TX, USA). To include no-drug controls, the drug panel (Table 6) was divided on two plates. Due to previous observations of cells growing poorly in wells located at the edges of the plates, the two outer most rows and columns were not used. As previously mentioned three different drug concentrations were used in the screen, 10 nM and 1 μM for U2932 and 10 and 100 nM for RIVA.
(§5) Candidate hits were identified using the Bliss Independence test for synergy. The effect of each drug alone at each concentration was calculated as the fraction of dead cells as compared to control cells Fa=(1−(RLUdrug/avgRLUcontrol), a similar calculation was performed for the effect of Betalutin alone Fb=(1−(avgRLUBetalutin/avgRLUcontrol). Through the following equation we found the expected additive effect of the combination of drug+Betalutin: Expected effect (E)Fab=(Fa+Fb−Fa*Fb). We subtracted this expected effect from the measured effect (M)Fab=(1−(RLUDrug+Betalutin/avgRLUcontrol) to get a value (Diff)Fab representing how the measured effect differed from the expected additive effect of the combination. This value was normalized to the survival fraction of drug alone: (Diff)Fab#=(Diff)Fab/(1−Fa). Furthermore, to get a measure of how big the well-to-well variation was, we calculated the standard deviation for the effect of Betalutin alone in the 48 control wells on each plate: (STDEV)Fb=(RLUBetalutin/RLUcontrol)−(averageRLUBetalutin/averageRLUcontrol). Drugs with a value (Diff)Fab#two times higher than the standard deviation of Betalutin treated controls, (STDEV)Fb, were scored as hits.
as §3, with “Measurements were repeated as often as required within 72 h after adding the reagents. A Tecan SPARK 10M plate reader (Tecan, SUI) was used to measure luminescence, with the integration time set to 1 sec.” left out

The subject of another test is RIVA cells. As to the kind of experiment: Real Time Glo viability screen, Betalutin with PARP or cell cycle kinase inhibitors (Examples 4, 7). The following applies: for BLISS analysis, combination with Betalutin versus expected additive effect: significant = more than twice the SD of Betalutin alone. The protocol:
as §1, §2, §3, §4, §5
as §3, with “Measurements were repeated as often as required within 72 h after adding the reagents. A Tecan SPARK 10M plate reader (Tecan, SUI) was used to measure luminescence, with the integration time set to 1 sec.” left out

For test [2], the system named is U-2932 cells. As to the kind of experiment: Real Time Glo viability screen and validation, Betalutin with PARP or cell cycle kinase inhibitors (Examples 4, 7). The note with it: for Effect of monotreatment on proliferation: U-2932, validation screen, 0-1280 nM.
Test [3] has as its system CD133 and CD44 at the DOHH2 cell surface. As to the kind of experiment: Expression of stem cell markers after RIT (flow cytometry). The following applies: DOHH2, 6 MBq/mL for 18 h, up to 9 days post-RIT. The protocol: Cells were harvested at 0, 2 h, 18 h and each day from 1 d to 10 d of RIT. At each time point, cells were fixed with PFA 4% for 10 minutes, washed twice with PBS and sterilely stored in PBS at 4° C. Stem cell markers were detected with anti-CD133-FITC (clone: AC133, Milteniy) and anti-CD44-APC (clone: IM7, Merck Millipore). 0.5×10^6 cells were saturated for 1 h in PBS-BSA 0.5%. Next cells were centrifuged and incubated with anti-CD133-FITC (2 μL) and anti-CD44-APC (0.125 μg) for 1 h at room temperature in the dark. Finally, cells were rinsed twice and analysed using Gallios® flow cytometer (Beckman Coulter).
For a preliminary study, investigation of the expression of CD133 and CD44 at the surface of cells treated for 18 h with 6 MBq/mL ^177Lu-lilotomab and ^177Lu-rituximab was done.
For orientation: A flow cytometer gives signals particle by particle.

Test [4] concerns DOHH2 cells. In words: Apoptosis induction (Annexin V/7-AAD, Muse flow cytometer). The note with it: DOHH2, 6 MBq/mL radiolabelled mAb for 18 h, peak time 72 h. The protocol: (§6) Cells were harvested at 0, 2 h, 18 h, 1 d, 2 d, 3 d of RIT. At each time point, apoptosis was detected with […] from Merck Millipore (Annexin V Kit with 7-AAD) in the dark for 30 min at room temperature before analysis using Muse® flow cytometer

Test [5] deals with Rec-1 cells. The test is described as above. The following applies: Rec-1, 6 MBq/mL radiolabelled mAb for 18 h, peak time 72 h. The protocol:
as §6

Test [6] relates to Ramos cells. The test is described as above. The following applies: 6 MBq/mL radiolabelled mAb for 18 h, peak time 72 h. Here is the method:
as §6

Test [7] concerns DOHH2 cells. In words: Cell cycle analysis (PI, Muse flow cytometer). The following applies: DOHH2, 6 MBq/mL, at 24 h. Here is the method: (§7) Cells were harvested at day 0, 2 h, 18 h, 1 d, 2 d, 3 d, of RIT then fixed in 70% ethanol at −20° C. for 3 hours and stained with Cell Cycle kit (with PI) reagent from Merck Millipore in the dark for 30 min at room temperature before analysis using a Muse® flow cytometer. The percentage of cells in G0/G1, S and G2/M phases was then calculated (mean of three experiments in triplicate).
(§8) At different times after start of incubation, proteins were extracted to measure the CDK1 phosphorylation levels, in parallel, proliferation was determined and at 18 h and 24 h after start of incubation, the percentage of cells in G2/M was assessed (experiments were performed three time except the cell cycle analysis).
(§9) Cells were harvested at 0 h, 2 h, 18 h, 1 d, 2 d, 3 d, and fixed in 70% ethanol at −20° C. for at least 3 h. After staining with the Muse® Cell Cycle Assay Kit (Merck Millipore, Molsheim, France) using propidium iodide in the dark at room temperature for 30 min, cell cycle distribution was analyzed using a Muse® flow cytometer. The percentage of cells in the G0/G1, S and G2/M was calculated (mean of three experiments in triplicate) and the effect of WEE-1 and MYT-1 kinase inhibitors on the cell cycle was assessed.

Test [8] concerns Rec-1 cells. As to the kind of experiment: Cell cycle analysis (PI, Muse flow cytometer). The following applies: Rec-1, 6 MBq/mL, at 24 h. The protocol: as §7, §8, §9
The subject of test [9] is Ramos cells. As to the kind of experiment: Cell cycle analysis (PI, Muse flow cytometer). The note with it: 6 MBq/mL, at 24 h. Here is the method: as §7, §8, §9
The mark [10] stands for this setting: U-2932, drug 1 μM + Betalutin 1 μg/ml.
Where [11] appears, read: RIVA, drug 100 nM + Betalutin 0.5 μg/ml.

On to `COc1cc(Nc2ncc3c(n2)-c2ccc(Cl)cc2C(c2c(F)cccc2OC)=NC3)ccc1C(=O)O` [MLN8237], for which, in the test on U-2932 cells [1] (Homo sapiens, U2932, 144 h, U-2932, drug 1 μM, day 6, read-out: Growth inhibition, drug alone), the inhibition at 1 µM was roughly 40%. In addition, the “Growth inhibitory effect, drug alone” value is “insufficient to inhibit proliferation” with U-2932 cells [1] (U-2932, drug 10 nM) and “insufficient to inhibit proliferation” in the test with RIVA cells (RIVA, drug 10 nM). Also, the “Growth inhibitory effect, drug combined with Betalutin” value with U-2932 cells [1] (setting [10]) and with RIVA cells (setting [11]) was “enhanced” throughout. In addition, the inhibition at 0.1 µM with RIVA cells (Homo sapiens, 144 h, RIVA, drug 100 nM, day 6, read-out: Growth inhibition, drug alone) was roughly 60%. The “BLISS analysis, combination with Betalutin versus expected additive effect” value in the test with RIVA cells (RIVA) is reported as “significantly greater effect than the expected additive effect”. Besides, in the test on U-2932 cells [2], the “Effect of monotreatment on proliferation” value is given as “impaired proliferation at concentrations up to 160 nM”.

Turning to `CC[C@@H]1C(=O)N(C)c2cnc(Nc3ccc(C(=O)NC4CCN(C)CC4)cc3OC)nc2N1C1CCCC1` [BI2536], the inhibition at 0.01 µM was greater than 80% in the test on U-2932 cells [1] (Homo sapiens, U2932, read-out: Inhibition of proliferation, drug alone) and greater than 80% in the test with RIVA cells (Homo sapiens, read-out: Inhibition of proliferation, drug alone). For the same molecule, the “BLISS analysis, combination with Betalutin versus expected additive effect” value in the test with U-2932 cells [1] and in the test on RIVA cells (RIVA) was “significance was only reached in U-2932 cells” throughout. Further, the “Drug concentration at which synergism with Betalutin is evident (CI, Chou-Talalay)” value with U-2932 cells [2] (U-2932, Betalutin 0.5, 1 or 2 μg/ml, day 5) stood at 40 nM. In the test with U-2932 cells [2], the “Effect of monotreatment on proliferation” value is on record as “blocked proliferation almost completely at concentrations above 40 nM”.

Turning to `CN(C)Cc1ccc(-c2nc3cccc4c3n2CCNC4=O)cc1` [AG-14361], the “Growth inhibitory effect, drug alone” value with U-2932 cells [1] (U-2932, drug 10 nM) is reported as “only a minor inhibitory effect; also recorded: no growth inhibitory effect”; in the test with U-2932 cells [1] (U-2932, drug 1 μM), “inhibited proliferation”; in the test on RIVA cells (RIVA, drug 10 nM) it was “only a minor inhibitory effect; also recorded: no growth inhibitory effect”; in the test on RIVA cells (RIVA, drug 100 nM) it was “inhibited proliferation”. Besides, the “Growth inhibitory effect, drug combined with Betalutin” value was “did not enhance the growth inhibitory effect of Betalutin” in the test on U-2932 cells [1] (U-2932, drug 10 nM + Betalutin 1 μg/ml); “potentiated the proliferation inhibitory effect of Betalutin; also recorded: stronger growth inhibition than AG-14361 alone” in the test with U-2932 cells [1] (setting [10]); “did not enhance the growth inhibitory effect of Betalutin” in the test on RIVA cells (RIVA, drug 10 nM + Betalutin 0.5 μg/ml); “potentiated the proliferation inhibitory effect of Betalutin; also recorded: stronger growth inhibition than AG-14361 alone” with RIVA cells (setting [11]). Moreover, the “BLISS analysis, combination with Betalutin versus expected additive effect” value in the test with U-2932 cells [1] and in the test with RIVA cells (RIVA) was “strongest combinatory effect” each time.

As to `C[C@@H](Oc1cc(-n2cnc3ccc(CN4CCN(C)CC4)cc32)sc1C(N)=O)c1ccccc1C(F)(F)F` [GSK461364], the “Growth inhibitory effect, drug alone” value is reported as “less potency than BI2536” in the test on U-2932 cells [1] (U-2932, drug 10 nM) and “less potency than BI2536” in the test with RIVA cells (RIVA, drug 10 nM). The “BLISS analysis, combination with Betalutin versus expected additive effect” value in the test on U-2932 cells [1] and in the test with RIVA cells (RIVA) was “significantly greater than the expected additive effect” each time. Further, in the test with U-2932 cells [2], the “Effect of monotreatment on proliferation” value was “blocked proliferation almost completely at concentrations above 40 nM”.

In the case of ^177Lu-rituximab, the “Proportion of cells expressing CD44 and CD133” value in [3] is “strongly increased”. Besides, the values for the Apoptosis level in the test with DOHH2 cells [4], in the test on Rec-1 cells [5] and in the test on Ramos cells [6] were 97±3%, 79±16% and 56±12%, respectively. For the same molecule, the “Proportion of cells showing a G2/M cell cycle arrest” value stood at 38±2% in the test with DOHH2 cells [7], 40±11% in the test with Rec-1 cells [8] and 56±13% in the test on Ramos cells [9].

On to `CNCc1ccc(-c2[nH]c3cc(F)cc4c3c2CCNC4=O)cc1` [Rucaparib], for which the “Growth inhibitory effect, drug alone” value with U-2932 cells [1] (U-2932, all tested concentrations (10 nM, 1 μM)) is given as “no growth inhibitory effect”; in the test on RIVA cells (RIVA, all tested concentrations (10, 100 nM)), “no growth inhibitory effect”. Also, the “Growth inhibitory effect, drug combined with Betalutin” value with U-2932 cells [1] (setting [10]) and in the test with RIVA cells (setting [11]) was “potentiated the proliferation inhibitory effect of Betalutin; also recorded: stronger growth inhibition than Betalutin alone” each time. Moreover, the “BLISS analysis, combination with Betalutin versus expected additive effect” value with U-2932 cells [1] and in the test on RIVA cells (RIVA) was “larger than the expected additive effect” throughout.
